From PMC6895180 (Nature Communications, 2019)
Values joined by “and” are separate entries in the source; they are usually repeats but may differ in a detail not shown here. Equal entries are not always repeated. Where two headings read alike, the source gives them in different places.

What was measured:
[1] = biological target: T1, P2 transporter (TbAT1) (Trypanosoma brucei brucei, UniProt Q9Y0I0); assay: cell-based
Protocol: Non-specific association of radiolabel with the cell pellet was determined using an identical incubation in the presence of saturating (1 mM) unlabelled adenosine.

[2] = tested on: Lister 427WT T. b. brucei; assay: Adenosine deaminase susceptibility (drug sensitivity with/without 2 µM deoxycoformycin); type: cell-based, Trypanosoma brucei brucei; conditions: Trypanosoma brucei, Lister 427WT, mean ± SEM, n=3
Protocol: Drug susceptibility tests with Lister 427WT, TbAT1-KO[48], B48[26] and ISMR1[27] were performed using an assay based on the viability indicator dye resazurin in 96-well plates, each well containing 2 × 10^4 cells. The plates were incubated for 48 h with a doubling dilution series of the test compounds in HMI-9/fetal bovine serum at 37 °C/5% CO2 (23 dilutions starting at 100 µM, except for the pentamidine control (50 µM)), after which resazurin (20 µL of 125 µg mL^−1 resazurin sodium salt solution was added to each well (containing 200 µL of cells and test compound)) was added to each well and the plates incubated for another 24 h. Fluorescence was determined using a FLUOstar Optima (BMG Labtech, Durham, NC) and the results fitted to a sigmoid curve with variable slope using Prism 5.0 or Prism 7.04 (GraphPad, San Diego, CA). […]
Adenosine deaminase susceptibility
in the presence or absence of 2 µM 2’-deoxycoformycin. […]

[3] = tested on: T. brucei BSF s427 wildtype cells; assay: Growth assays of T. brucei (trypanocidal/trypanostatic effect); type: cell-based, Trypanosoma brucei; conditions: experiment 1
Protocol: Growth assays of T. brucei
To test the effect of the novel adenosine analogues on the growth of T. brucei BSF, s427 wildtype cells were seeded at 1×10^5 cells mL-1 in 5 mL of HMI-9 medium with 10% FBS and treated with compounds […]
cells were also incubated in drug-free medium under the same conditions. 2 μM of 2’-deoxycoformycin were added to all cultures to avoid any potential effect of serum adenosine deaminase on the activity of test compounds and cordycepin.1
Cells were manually counted in Neubauer chambers at 0, 2, 4, 6, 8, 12, 24, 36 and 48 h after addition of […]
the drugs. […]
After 6 and 12 h after addition of drugs, approximately 2×10^6 cells were harvested from each group and applied to glass slides pre-treated with poly-L-lysine, left to settle for 5 min and fixed with 4% formaldehyde for 4 min. The formaldehyde was neutralised by addition of 100 mM glycine (20 min).
Cells were washed once with PBS and blocked for 1 h with 1% BSA/0.2% Tween-20 in PBS. Cells were […]

[4] = biological target: P1 transporter; set-up: method as in PMID 10570043; conditions: ref [29]; cited from earlier work
[5] = biological target: T1, P2 transporter (TbAT1); set-up: method as in PMID 24283924; conditions: ref [18]; cited from earlier work

T1 sequence (Q9Y0I0 entry or part of it): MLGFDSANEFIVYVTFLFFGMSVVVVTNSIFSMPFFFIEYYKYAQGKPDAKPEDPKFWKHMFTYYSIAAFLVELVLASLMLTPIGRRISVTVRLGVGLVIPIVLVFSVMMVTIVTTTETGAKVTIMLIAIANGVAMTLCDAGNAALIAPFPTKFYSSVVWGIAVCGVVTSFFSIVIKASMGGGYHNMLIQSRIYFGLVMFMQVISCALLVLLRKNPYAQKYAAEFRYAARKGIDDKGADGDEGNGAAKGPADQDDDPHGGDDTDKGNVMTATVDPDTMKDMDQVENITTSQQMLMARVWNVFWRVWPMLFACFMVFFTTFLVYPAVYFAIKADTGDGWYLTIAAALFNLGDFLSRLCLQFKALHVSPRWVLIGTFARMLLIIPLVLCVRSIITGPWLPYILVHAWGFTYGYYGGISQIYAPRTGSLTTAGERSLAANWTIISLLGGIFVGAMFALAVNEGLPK

Nc1ncnc2c1ncn2[C@@H]1O[C@H](CO)C[C@H]1O [Compound 3, cordycepin, reference compound]
P2 Ki, fold lower than the Km value for adenosine [1]: roughly 3 fold
energy advantage at P2 versus adenosine [1]: roughly 3 kJ mol^−1
P2 transporter ΔG^0 ([1]; Gibbs free energy from −RT ln(Ki)): -9.2 kcal/mol
P2 transporter δ(ΔG^0) ([1]; in comparison to adenosine): -0.645 kcal/mol
EC50 ([2]; absence of deoxycoformycin, read-out: T. b. brucei EC50, -Dcf): 440 ± 110 nM
EC50 ([2]; presence of 2 µM deoxycoformycin, read-out: T. b. brucei EC50, +Dcf): 3.6 ± 1 nM
AVG of cells/mL ([3]; 2xEC50, 2 h): 122500 cells/mL
Cells/mL ([3]; 2xEC50, 2 h): 130000 Cells/mL and 115000 Cells/mL
Counts ([3]; 2xEC50, 2 h): 52 and 46
AVG of cells/mL ([3]; 2xEC50, 4 h): 122500 cells/mL
Cells/mL ([3]; 2xEC50, 4 h): 110000 Cells/mL and 135000 Cells/mL
Counts ([3]; 2xEC50, 4 h): 44 and 54
AVG of cells/mL ([3]; 2xEC50, 6 h): 161250 cells/mL
Cells/mL ([3]; 2xEC50, 6 h): 150000 Cells/mL and 172500 Cells/mL
Counts ([3]; 2xEC50, 6 h): 60 and 69
AVG of cells/mL ([3]; 2xEC50, 8 h): 187500 cells/mL
Cells/mL ([3]; 2xEC50, 8 h): 207500 Cells/mL and 167500 Cells/mL
Counts ([3]; 2xEC50, 8 h): 83 and 67
AVG of cells/mL ([3]; 2xEC50, 12 h): 195000 cells/mL
Counts ([3]; 2xEC50, 12 h): 75 and 81
AVG of cells/mL ([3]; 2xEC50, 24 h): 106250 cells/mL
Cells/mL ([3]; 2xEC50, 24 h): 82500 Cells/mL and 130000 Cells/mL
Counts ([3]; 2xEC50, 24 h): 33 and 52
AVG of cells/mL ([3]; 2xEC50, 36 h): 81250 cells/mL
Counts ([3]; 2xEC50, 36 h): 29 and 36
AVG of cells/mL ([3]; 2xEC50, 48 h): 105000 cells/mL
Cells/mL ([3]; 2xEC50, 48 h): 105000 Cells/mL
Counts ([3]; 2xEC50, 48 h): 42
AVG of cells/mL ([3]; 5xEC50, 2 h): 145000 cells/mL
Cells/mL ([3]; 5xEC50, 2 h): 177500 Cells/mL and 112500 Cells/mL
Counts ([3]; 5xEC50, 2 h): 71 and 45
AVG of cells/mL ([3]; 5xEC50, 4 h): 118750 cells/mL
Cells/mL ([3]; 5xEC50, 4 h): 107500 Cells/mL and 130000 Cells/mL
Counts ([3]; 5xEC50, 4 h): 43 and 52
AVG of cells/mL ([3]; 5xEC50, 6 h): 130000 cells/mL
Cells/mL ([3]; 5xEC50, 6 h): 130000 Cells/mL
Counts ([3]; 5xEC50, 6 h): 52
AVG of cells/mL ([3]; 5xEC50, 8 h): 172500 cells/mL
Cells/mL ([3]; 5xEC50, 8 h): 177500 Cells/mL and 167500 Cells/mL
Counts ([3]; 5xEC50, 8 h): 71 and 67
AVG of cells/mL ([3]; 5xEC50, 12 h): 156250 cells/mL
Counts ([3]; 5xEC50, 12 h): 60 and 65
AVG of cells/mL ([3]; 5xEC50, 24 h): 33750 cells/mL
Cells/mL ([3]; 5xEC50, 24 h): 35000 Cells/mL and 32500 Cells/mL
Counts ([3]; 5xEC50, 24 h): 14 and 13
AVG of cells/mL ([3]; 5xEC50, 36 h): 31250 cells/mL
Cells/mL ([3]; 5xEC50, 36 h): 32500 Cells/mL and 30000 Cells/mL
Counts ([3]; 5xEC50, 36 h): 13 and 12
AVG of cells/mL ([3]; 5xEC50, 48 h): 15000 cells/mL
Cells/mL ([3]; 5xEC50, 48 h): 15000 Cells/mL
Counts ([3]; 5xEC50, 48 h): 6
Ki [4]: 210000 ± 48000 nM
Ki [5]: 180 ± 20 nM
